Usually IC50 stands for the midpoint of a concentration-inhibition curve.

Each structure is given as a SMILES string.

Experimental findings from patent publication US8895550B2, “Triazolopyridine compounds as PIM kinase inhibitors” (Array BioPharma Inc., priority 2008, dated 2014) are described below.

What all share (type): biochemical
Assay [1] addresses PIM-1 (Homo sapiens, UniProt P11309). Kind of assay: Enzyme PIM-1 Assay (radiometric [33P]ATP incorporation into PIM2tide, filter plate). The following applies: 35 μM ATP, 7.5 μM PIM2tide, 0.25 nM PIM-1, 60 min at 22° C.; high dose 10 μM. Here is the method: (§1) The assay for the determination of PIM-1 activity is based on the incorporation of [^33P]PO4 from [γ-^33P]ATP into PIM2tide substrate and capture of the radiolabeled peptide onto a Whatman P81 (phosphocellulose) filter plate. The amount of radiolabeled product is then measured by liquid scintillation counting. The final buffer conditions were as follows: 20 mM K^+MOPS, pH 7.4, 10 mM MgCl2, 0.005% Tween-20, 1 mM DTT. Assay mixtures contained 35 μM [γ-^33P]ATP (20 μCi/mL), 7.5 μM PIM2tide and 0.25 nM PIM-1 in a total volume of 50 μL. Incubations were carried out for 60 min at 22° C. and quenched with 75 μL, of 200 mM H3PO4, filtered through a Whatman P81 plate and washed (1×200 μL and 5×100 μL) with 200 mM H3PO4. Fifty μL of liquid scintillation cocktail were then added per well, and the plate was counted for 30 s/well using a TopCount NXT.
(§2) Compounds were prepared at 50× the final concentration in DMSO by conducting 3-fold serial dilutions from a 500-μM intermediate dilution to give a 10-point dosing curve having a high dose of 10 μM. One-μL aliquots of these were then transferred to the assay mixtures above to give a final concentration of DMSO of 2%. A standard or reference compound was typically included on each assay plate to validate that plate. For each plate, percent of control (POC) values were calculated for each well. IC50's were estimated from the POC's using a standard 4-parameter logistic model. The IC50 is defined as the concentration of inhibitor at which the POC equals 50 for the fitted curve.

Assay [2] has as its target T1, GST-tagged recombinant full-length human Pim-2 (Homo sapiens, UniProt Q9P1W9).
T1 construct: GST-tagged recombinant full-length human Pim-2; GST
The assay can be described thus: PIM-2 Assay (as Example A with GST-tagged recombinant full-length human Pim-2). The following applies: 4 μM ATP, 1.0 μM PIM2tide, 1.5 nM Pim-2; high dose 10 μM. On the procedure: as §1, §2
Assay was performed as described in Example A, using 4 μM [γ-^33P]ATP (20 μCi/mL), 1.0 μM PIM2tide and 1.5 nM GST-tagged recombinant full-length human Pim-2 in place of PIM-1.

The target in assay [3] is recombinant rat PIM-3 (Rattus norvegicus, UniProt O70444). Kind of assay: PIM-3 Assay (as Example A with recombinant rat PIM-3). The following applies: 30 μM ATP, 3.75 μM PIM2tide, 0.5 nM PIM-3; high dose 10 μM. Here is the method: as §1, §2
Assay was performed as described in Example A, using 30 μM [γ-^33P]ATP (20 μCi/mL), 3.75 μM PIM2tide and 0.5 nM recombinant rat PIM-3 in place of PIM-1.

T1 sequence (Q9P1W9 whole entry): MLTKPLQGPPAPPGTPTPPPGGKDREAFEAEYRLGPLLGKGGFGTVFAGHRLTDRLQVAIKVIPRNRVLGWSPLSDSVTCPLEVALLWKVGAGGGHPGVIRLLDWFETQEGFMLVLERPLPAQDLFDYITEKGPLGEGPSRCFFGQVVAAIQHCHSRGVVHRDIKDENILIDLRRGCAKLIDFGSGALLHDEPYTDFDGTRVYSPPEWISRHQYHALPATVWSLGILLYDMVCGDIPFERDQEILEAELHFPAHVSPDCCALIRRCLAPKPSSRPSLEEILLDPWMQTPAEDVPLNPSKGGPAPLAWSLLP
PIM-1, sequence (P11309 whole entry, species assumed): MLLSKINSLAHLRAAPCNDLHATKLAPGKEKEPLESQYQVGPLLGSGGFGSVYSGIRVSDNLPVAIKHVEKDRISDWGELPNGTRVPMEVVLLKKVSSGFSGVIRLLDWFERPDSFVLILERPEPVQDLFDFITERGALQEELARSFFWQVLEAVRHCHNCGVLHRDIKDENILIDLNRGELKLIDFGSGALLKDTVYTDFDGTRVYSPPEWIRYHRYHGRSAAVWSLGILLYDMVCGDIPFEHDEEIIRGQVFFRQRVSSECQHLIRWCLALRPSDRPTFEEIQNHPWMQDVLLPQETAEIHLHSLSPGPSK

Turning to `NCc1ccn2c(-c3ccc4cccc(N5CCC(CN)CC5)c4n3)nnc2c1` [Example 13, (1-(2-(7-(Aminomethyl)-[1,2,4]triazolo[4,3-a]pyridin-3-yl)quinolin-8-yl)piperidin-4-yl)methanamine], the IC50 was 2 nM in assay [1], 29 nM in assay [2] and 4 nM in assay [3].
On to `CC1(C)CN(c2cccc3ccc(-c4nnc5ccccn45)nc23)CCN1` [Example 23, 2-([1,2,4]triazolo[4,3-a]pyridin-3-yl)-8-(3,3-dimethylpiperazin-1-yl)quinoline], for which the IC50 in assay [1] is 22 nM; in assay [2] it was 647 nM; in assay [3], 62 nM.
On to `COc1ccn2c(-c3ccc4cccc(N5CCNCC5)c4n3)nnc2c1` [Example 2, 2-(7-Methoxy-[1,2,4]triazolo[4,3-a]pyridin-3-yl)-8-(piperazin-1-yl)quinoline], for which the IC50 was 179 nM in assay [1] and ≥ 10000 nM in assay [2].
Regarding `N[C@@H]1CCN(c2cccc3ccc(-c4nnc5ccccn45)nc23)C[C@@H]1F` (relative stereo) [Example 27, (cis)-1-(2-([1,2,4]triazolo[4,3-a]pyridin-3-yl)quinolin-8-yl)-3-fluoropiperidin-4-amine], the IC50 in assay [1] stood at 34 nM; in assay [2] it was 570 nM; in assay [3], 38 nM.
The matching figures for `CC1(N)CCN(c2cccc3ccc(-c4nnc5ccccn45)nc23)CC1` [Example 26, 1-(2-([1,2,4]triazolopyridin-3-yl)quinolin-8-yl)-4-methylpiperidin-4-amine]: 21 nM, 613 nM and 62 nM.
As to `N[C@H]1CCCN(c2cccc3ccc(-c4nnc5ccccn45)nc23)C1` [Example 22, (S)-1-(2-([1,2,4]triazolo[4,3-a]pyridin-3-yl)quinolin-8-yl)piperidin-3-amine], the IC50 in assay [1] is 270 nM; in assay [2], 3100 nM.
On to `NCC1CCN(c2cccc3ccc(-c4nnc5cc(CO)ccn45)nc23)CC1` [Example 11, (3-(8-(4-(Aminomethyl)piperidin-1-yl)quinolin-2-yl)-[1,2,4]triazolo[4,3-a]pyridin-7-yl)methanol], for which the results for the IC50 in assay [1], in assay [2] and in assay [3] were 84 nM, 2600 nM and 217 nM, respectively.
Consider `CC1CCCN(c2cccc3ccc(-c4nnc5ccccn45)nc23)C1` (stereo not drawn) [Example 19, 2-([1,2,4]triazolo[4,3-a]pyridin-3-yl)-8-(3-methylpiperidin-1-yl)quinoline], for which the IC50 was determined as 18 nM in assay [1] and 1800 nM in assay [2].
With `NCC1CCN(c2cc(Cl)cc3ccc(-c4nnc5ccccn45)nc23)CC1` [Example 18, (1-(2-([1,2,4]Triazolo[4,3-a]pyridin-3-yl)-6-chloroquinolin-8-yl)piperidin-4-yl)methanamine], the IC50 in assay [1] came to 32 nM; in assay [2], 736 nM; in assay [3], 25 nM.
As for `c1cc(N2CCCCC2)c2nc(-c3nnc4ccccn34)ccc2c1` [Example 5, 2-([1,2,4]Triazolo[4,3-a]pyridin-3-yl)-8-(piperidin-1-yl)quinoline], the figures for the IC50 in assay [1], in assay [2] and in assay [3] were 24 nM, 2600 nM and 121 nM, respectively.
For the molecule `COc1ccn2c(-c3ccc4cccc(N5CCOCC5)c4n3)nnc2c1` [Example 4, 4-(2-(7-Methoxy-[1,2,4]triazolo[4,3-a]pyridin-3-yl)quinolin-8-yl)morpholine], the IC50 in assay [1] was 2790 nM; in assay [2], ≥ 10000 nM.
For `NCC1CCN(c2ccc(F)c3ccc(-c4nnc5ccccn45)nc23)CC1` [Example 17, (1-(2-([1,2,4]triazolo[4,3-a]pyridin-3-yl)-5-fluoroquinolin-8-yl)piperidin-4-yl)methanamine], the IC50 in assay [1] amounted to 77 nM; in assay [2] it was 1960 nM; in assay [3] it was 51 nM.
Turning to `N[C@@H]1CCCN(c2cccc3ccc(-c4nnc5ccccn45)nc23)C1` [Example 21, (R)-1-(2-([1,2,4]triazolo[4,3-a]pyridin-3-yl)quinolin-8-yl)piperidin-3-amine], the IC50 in assay [1] amounted to 7 nM; in assay [2] it was 142 nM.
Regarding `NCC1CCN(c2cccc3ccc(-c4nnc5ccccn45)nc23)CC1` [Example 10, (1-(2-([1,2,4]Triazolo[4,3-a]pyridin-3-yl)quinolin-8-yl)piperidin-4-yl)methanamine], the IC50 in assay [1] was determined as 3 nM; in assay [2], 224 nM; in assay [3], 13 nM.
In the case of `NCC1CCN(c2cccc3ccc(-c4nnc5cc(C(O)CO)ccn45)nc23)CC1` (stereo not drawn) [Example 14, 1-(3-(8-(4-(Aminomethyl)piperidin-1-yl)quinolin-2-yl)-[1,2,4]triazolo[4,3-a]pyridin-7-yl)ethane-1,2-diol], the results for the IC50 in assay [1], in assay [2] and in assay [3] were 4 nM, 509 nM and 20 nM, respectively.
Turning to `c1cc(N2CCNCC2)c2nc(-c3nnc4ccccn34)ccc2c1` [Example 6, 2-([1,2,4]Triazolo[4,3-a]pyridin-3-yl)-8-(piperazin-1-yl)quinoline], the results for the IC50 in assay [1], in assay [2] and in assay [3] were 31 nM, 2980 nM and 105 nM, respectively.
Take `NCC1CCN(c2cc(F)cc3ccc(-c4nnc5ccccn45)nc23)CC1` [Example 16, (1-(2-([1,2,4]triazolo[4,3-a]pyridin-3-yl)-6-fluoroquinolin-8-yl)piperidin-4-yl)methanamine]: the IC50 was determined as 3 nM in assay [1], 185 nM in assay [2] and 10 nM in assay [3].
Turning to `OC1CCCN(c2cccc3ccc(-c4nnc5ccccn45)nc23)C1` (stereo not drawn) [Example 20, 1-(2-([1,2,4]triazolo[4,3-a]pyridin-3-yl)quinolin-8-yl)piperidin-3-ol], the IC50 is 48 nM in assay [1] and 2380 nM in assay [2].
On to `COCCOc1ccn2c(-c3ccc4cccc(N5CCNCC5)c4n3)nnc2c1` [Example 1, 2-(7-(2-Methoxyethoxy)-[1,2,4]triazolo[4,3-a]pyridin-3-yl)-8-(piperazin-1-yl)quinoline], for which the IC50 was 255 nM in assay [1], ≥ 10000 nM in assay [2] and 554 nM in assay [3].
The matching figures for `NC1CCN(c2cccc3ccc(-c4nnc5ccccn45)nc23)CC1` [Example 9, 1-(2-([1,2,4]Triazolo[4,3-a]pyridin-3-yl)quinolin-8-yl)piperidin-4-amine]: 11 nM, 543 nM and 24 nM.
Consider `Cc1nc(CN2CCN(c3cccc4ccc(-c5nnc6ccccn56)nc34)CC2)cs1` [Example 24, 4-((4-(2-([1,2,4]triazolo[4,3-a]pyridin-3-yl)quinolin-8-yl)piperazin-1-yl)methyl)-2-methylthiazole], for which the IC50 in assay [1] was 150 nM; in assay [2] it was ≥ 10000 nM.
On the same counts, the results for `CC1CCCN(c2c(Br)ccc3ccc(-c4nnc5ccccn45)nc23)C1` (stereo not drawn) [Example 25, 2-([1,2,4]triazolo[4,3-a]pyridin-3-yl)-7-bromo-8-(3-methylpiperidin-1-yl)quinoline] are 128 nM and 3020 nM.
For the molecule `C[C@@H]1CN(c2cccc3ccc(-c4nnc5ccccn45)nc23)C[C@H](C)N1` [Example 8, 2-([1,2,4]Triazolo[4,3-a]pyridin-3-yl)-8-((cis)-3,5-dimethylpiperazin-1-yl)quinoline], the IC50 in assay [1] is 54 nM; in assay [2], ≥ 10000 nM; in assay [3], 189 nM.
Turning to `OCC1CCCN(c2cccc3ccc(-c4nnc5ccccn45)nc23)C1` (stereo not drawn) [Example 15, (1-(2-([1,2,4]Triazolo[4,3-a]pyridin-3-yl)quinolin-8-yl)piperidin-3-yl)methanol], the IC50 was found to be 15 nM in assay [1] and 2080 nM in assay [2].
Take `COc1ccn2c(-c3ccc4cccc(N5CCC(N)CC5)c4n3)nnc2c1` [Example 3, 1-(2-(7-Methoxy-[1,2,4]triazolo[4,3-a]pyridin-3-yl)quinolin-8-yl)piperidin-4-amine]: the IC50 came to 24 nM in assay [1], 2310 nM in assay [2] and 60 nM in assay [3].
The matching figures for `CCNCc1ccn2c(-c3ccc4cccc(N5CCC(CN)CC5)c4n3)nnc2c1` [Example 12, N-((3-(8-(4-(aminomethyl)piperidin-1-yl)quinolin-2-yl)-[1,2,4]triazolo[4,3-a]pyridin-7-yl)methyl)ethanamine]: 3 nM, 92 nM and 4 nM.
